Test results: patent US20120129843A1, “PYRIDYL-THIAZOLYL INHIBITORS OF PRO-MATRIX METALLOPROTEINASE ACTIVATION” (priority 2010, published 2012)

What was measured:
[1] = tested on: rats with SCW-induced arthritis; test: Efficacy in rats with SCW-induced arthritis (ankle thickness, clinical score); format: in vivo, rat; details: for Clinical Scores (0-8), Day 18 (mean): Day 18, start of treatment; for Clinical Scores (0-8), Day 26 (mean): Day 18-26
Text: A polyarthritis can be induced in female Lewis rats following i.p. administration of streptococcal cell wall (SCW) proteoglycan-polysaccharides (PG-PS) (J Exp Med 1977; 146:1585-1602). The model has an acute phase (days 3-7) that is complement and neutrophil-dependent and that resolves. A chronic erosive phase begins at about day ten and is dependent on the development of specific T cell immunity to the PG-GS, which resists digestion and remains present in synovial macrophages for months. Like rheumatoid arthritis, SCW-induced arthritis is reduced by TNF inhibitors, and the dependence of SCW-induced arthritis on macrophages (Rheumatology; 2001; 40:978-987) and the strong association of rheumatoid arthritis severity with synovial-tissue macrophage counts (Ann Rheum Dis; 2005; 64:834-838) makes SCW-arthritis an attractive model for testing potential therapeutic agents. SCW PG-PS 10S (Beckton Dickinson Cat#210866) suspended in saline was vortexed for 30 seconds and sonicated for 3 min with a probe type sonicator prior to injection. Female Lewis (LEW/N) rats, 5-6 weeks of age (80-100 g) were injected (i.p.) with SCW PG-PS (15 μg of rhamnose/gram BW) in the lower left quadrant of the abdomen using a 1 mL syringe fitted with a 23-gauge needle. Control (disease-free) rats were treated in a similar manner with sterile saline. Control rats were sacrificed on day 5 and groups of SCW-injected rats were sacrificed on day 5 when acute inflammation was maximal or on day 18 when chronic inflammation was established.
To induce arthritis, Female Lewis (LEW/N) rats, 5-6 weeks of age (80-100 g) were injected (i.p.) with SCW PG-PS as described above. Eighteen days later, arthritis was well established. Calipers were used to measure the width (anterior to posterior surface) of the left and right hind ankles of each rat. Each ankle was measured 3 times and averaged, and treatment groups were randomized based on ankle thickness (Table 6). Commencing on day 18, randomized groups of arthritic rats (n=5 rats/group) received vehicle or 5, 20, or 50 mg/kg Compound-α BID by oral gavage. Vehicle consisted of an aqueous mixture containing 2% (v:v) N-methylpyrrolidone, 5% (v:v) glycerine, and 20% (w:v) captisol. Treatment continued daily through the morning of day 26.
By day 18 mean ankle thickness was increased an average of >4.4 mm compared to disease free rats. Rats treated with vehicle alone continued to gradually develop a more severe arthritis based on ankle thickness measurements over the eight-day treatment period (Table 6). […] By day 26, the disease associated increase in ankle thickness had been reduced 27, 37, and 46 percent by 5, 20, and 50 mg/kg Compound-α, respectively.
Hind paw inflammation clinical scores were assigned based on swelling and erythema.

[2] = molecular target: T1, MMP9 mediated gelatinase activity in the livers (Rattus norvegicus, UniProt P50282); test: In situ zymography of gelatinase activity in livers of SCW-induced rats dosed with compound; format: in vivo; details: for Intensity, Mean / Intensity, Rat 1 / Intensity, Rat 2 / Intensity, Rat 3: SCW, Day 25-28
T1 construct: from tissue; host or cells: frozen liver sections of female Lewis rats
T1 sequence (P50282 20-708): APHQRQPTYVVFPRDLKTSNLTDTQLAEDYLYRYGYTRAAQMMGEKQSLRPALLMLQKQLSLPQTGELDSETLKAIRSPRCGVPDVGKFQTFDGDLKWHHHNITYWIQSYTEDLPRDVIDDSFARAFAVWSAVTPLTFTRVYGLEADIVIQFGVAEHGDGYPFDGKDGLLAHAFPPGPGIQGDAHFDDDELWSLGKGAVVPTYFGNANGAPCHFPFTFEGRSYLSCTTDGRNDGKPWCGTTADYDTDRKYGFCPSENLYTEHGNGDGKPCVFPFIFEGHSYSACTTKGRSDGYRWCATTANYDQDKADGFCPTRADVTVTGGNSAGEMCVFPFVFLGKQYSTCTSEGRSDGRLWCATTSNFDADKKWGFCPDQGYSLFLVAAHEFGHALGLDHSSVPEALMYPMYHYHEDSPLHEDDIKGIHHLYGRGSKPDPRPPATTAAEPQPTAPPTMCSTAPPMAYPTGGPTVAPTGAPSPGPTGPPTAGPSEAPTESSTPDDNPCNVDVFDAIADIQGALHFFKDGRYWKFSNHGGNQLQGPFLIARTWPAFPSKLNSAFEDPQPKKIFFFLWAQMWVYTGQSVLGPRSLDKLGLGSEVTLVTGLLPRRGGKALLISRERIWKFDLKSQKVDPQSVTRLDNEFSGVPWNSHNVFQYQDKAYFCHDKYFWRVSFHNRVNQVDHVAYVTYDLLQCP
Text: Compound-α Reduced MMP9 Mediated Gelatinase Activity in the Livers of Rats with SCW Arthritis In situ zymography provides an alternative approach to assess active MMP9 in tissues (Frederiks). Tissue sections are overlain with fluorescene-conjugated gelatin wherein the conjugation is sufficiently dense to cause the fluorescene to be dye-quenched (DQ). Proteolytic degradation of the DQ-gelatin releases the fluorescene from the quenching effect giving rise to bright green fluorescence at the site of degradation. Because in situ zymography requires the use of frozen sections, calcified tissues are problematic. However, an additional feature of the SCW arthritis model is the development of hepatic granulomatous disease (J Immunol; 1986; 137:2199-2209), and MMP9 reportedly plays a role in macrophage recruitment in the granulomas response to mycobacteria (Infect Immun; 2006; 74:6135-6144). Consequently, granulomatous livers from SCW-treated rats were assessed for active MMP9 by in situ zymography.
As described above, Female Lewis (LEW/N) rats, 5-6 weeks of age (80-100 g) were injected (i.p.) with saline or SCW PG-PS. On day 28, when the granulomatous response was well established, animals were sacrificed and livers were frozen in OCT cryo-sectioning medium and 10 μm sections were cut on a Cryome HM 500 M cryotome and mounted on glass microscope slides. Sections were air dried briefly. MMP9 was confirmed as the source of the gelatinase activity in the liver by treating liver sections with monoclonal antibodies directed against the active site of the two major gelatinases MMP9 and MMP2. Liver sections overlain with 50 μL of 100 μg/mL neutralizing mouse monoclonal antibodies directed against MMP9 (Calbiochem, clone 6-6B), or MMP2 (Millipore, clone CA-4001), or with PBS for 1 hr at room temperature. Tissues were rinsed once with PBS, blotted, and briefly air dried and then overlain with DQ-gelatin (Invitrogen) dissolved to 1 mg/mL in deionized water and then diluted 1:10 in 1% wt/vol low gelling point agarose type VII (Sigma) in PBS. The sections were covered with coverslips, incubated in the dark at room temperature for 20 min, and imaged on an Olympus IX80 inverted microscope fitted with fluorescence optics, using SlideBook™ imaging software (Intelligent Imaging Innovations, Inc., Philadelphia, Pa.; version 5.0). Fluorescence intensity was determined (Table 8). When compared to a saline-treated rat, gelatinase activity was abundantly expressed in granulomatous liver sections obtained from a rat with SCW arthritis.
Next, liver in situ zymography was used to assess the relative presence of active MMP9 in rats dosed with vehicle vs. Compound-α. Female Lewis (LEW/N) rats, 5-6 weeks of age (80-100 g) were injected (i.p.) with saline or SCW PG-PS. Commencing on day 25, randomized groups of rats (n=3 rats/group) received vehicle or 20 or 50 mg/kg Compound-α BID by oral gavage. Vehicle consisted of an aqueous mixture containing 2% (v:v) N-methylpyrrolidone, 5% (v:v) glycerine, and 20% (w:v) captisol. Treatment continued daily through the morning of day 28. Four hrs after the AM dose on day 28, rats were sacrificed and livers assessed for active MMP9 by in situ zymography (Table 9). Gelatinase activity was increased markedly in SCW-induced rats, but activity was reduced by approximately 80% in animals treated with 50 mg/kg Compound-α.

`Cc1nc(C)c(-c2csc(Nc3cc(S(N)(=O)=O)ccc3OC(C)C)n2)s1` [Compound-α, 3-(2′,4′-Dimethyl-[4,5′]bithiazolyl-2-ylamino)-4-isopropoxy-benzenesulfonamide.HBr] was tested, and the “Clinical Scores (0-8), Day 18 (mean)” value ([1]; 5 mg/kg BID group) was 8.00, the “Clinical Scores (0-8), Day 26 (mean)” value ([1]; 5 mg/kg BID) was 6.80 and the “Clinical Scores (0-8), Day 18 (mean)” value ([1]; 20 mg/kg BID group) was 8.00. The “Clinical Scores (0-8), Day 26 (mean)” value ([1]; 20 mg/kg BID) was 5.20, the “Clinical Scores (0-8), Day 18 (mean)” value ([1]; 50 mg/kg BID group) was 7.80 and the “Clinical Scores (0-8), Day 26 (mean)” value ([1]; 50 mg/kg BID) was 4.40. The “reduction of liver gelatinase activity” value ([2]; 50 mg/kg, SCW-induced rats) was “approximately 80%”, the “Intensity, Mean” value ([2]; 20 mg/kg BID oral) was 55.2 RLU × 10^6 and the “Intensity, Rat 1” value ([2]; 20 mg/kg BID oral) was 43.0 RLU × 10^6. The “Intensity, Rat 2” value ([2]; 20 mg/kg BID oral) was 69.0 RLU × 10^6, the “Intensity, Rat 3” value ([2]; 20 mg/kg BID oral) was 53.7 RLU × 10^6 and the “Intensity, Mean” value ([2]; 50 mg/kg BID oral) was 11.1 RLU × 10^6. For the same compound, the “Intensity, Rat 1” value ([2]; 50 mg/kg BID oral) was 3.2 RLU × 10^6, the “Intensity, Rat 2” value ([2]; 50 mg/kg BID oral) was 25.6 RLU × 10^6 and the “Intensity, Rat 3” value ([2]; 50 mg/kg BID oral) was 4.5 RLU × 10^6.
